A short description of data set [1]: monomer/dimer equilibrium of DHA dissolved in water. Type of data set: physicochemical. As to conditions: DHA solutions at 30-50° C. versus 20° C. The text has this: It is assumed that the effect, advantageous according to the invention, of the improved tanning effect at elevated temperatures in the case of 1,3-dihydroxyacetone is connected with the following mechanism. As a raw material, DHA is in the form of a powder and consists of dimers. Dissolved in water, some of the dimers convert to the active monomeric form, which brings about the tanning reaction. At an elevated water temperature, the amount of monomers increases. […] At the same time, the elevated temperature increases the reaction rate of the tanning reaction. […] It is therefore preferred according to the invention when the solution of the self-tanning substance is tempered for about 15 min, but at least about 10 min, before the solution is applied to the human skin.

The conditions of data set [2]: over the entire pH range; cited from earlier work.

Structures are written as SMILES.

Consider `O=C(CO)CO` [DHA, 1,3-dihydroxyacetone], for which the “more active DHA monomers present than in DHA solutions at 20° C.” value in data set [1] was “up to 30%”. Regarding `O=c1c(O)c(-c2ccc(O)c(O)c2)oc2cc(O)cc(O)c12` [quercetin, 3,3′,4′,5,7-pentahydroxyflavone], in data set [2], the “antioxidative activity relative to the investigated structures” value is listed as “highest activity of the investigated structures”.

Source of the values: US7592000B2, “Method of tanning human body by mysting or immersion at elevated temperature” (Merck Patent GmbH, priority 2004, dated 2009).
